Test results: patent US20100240718A1, “NOVEL HETEROARYL-SUBSTITUTED ACETONE DERIVATIVE, SUITABLE FOR INHIBITING PHOSPHOLIPASE A2” (WESTFALISCHE WILHELMS UNIVERSITÄT MÜNSTER, priority 2007, published 2010)

Legend:
[1] = biological target: T1, cytosolic phospholipase A2 (Homo sapiens, UniProt P47712); assay: Inhibition of cytosolic phospholipase A2 isolated from human thrombocytes (arachidonic acid release from SAPC, HPLC-UV); type: biochemical; settings: for inhibition at 0.1 µM: read-out: inhibition of the activity of cytosolic phospholipase A2 compared to the control value
T1 construct: cytosolic phospholipase A2 obtained from human thrombocytes; from tissue; host or cells: human thrombocytes (platelets)
T1 sequence (P47712 1-749): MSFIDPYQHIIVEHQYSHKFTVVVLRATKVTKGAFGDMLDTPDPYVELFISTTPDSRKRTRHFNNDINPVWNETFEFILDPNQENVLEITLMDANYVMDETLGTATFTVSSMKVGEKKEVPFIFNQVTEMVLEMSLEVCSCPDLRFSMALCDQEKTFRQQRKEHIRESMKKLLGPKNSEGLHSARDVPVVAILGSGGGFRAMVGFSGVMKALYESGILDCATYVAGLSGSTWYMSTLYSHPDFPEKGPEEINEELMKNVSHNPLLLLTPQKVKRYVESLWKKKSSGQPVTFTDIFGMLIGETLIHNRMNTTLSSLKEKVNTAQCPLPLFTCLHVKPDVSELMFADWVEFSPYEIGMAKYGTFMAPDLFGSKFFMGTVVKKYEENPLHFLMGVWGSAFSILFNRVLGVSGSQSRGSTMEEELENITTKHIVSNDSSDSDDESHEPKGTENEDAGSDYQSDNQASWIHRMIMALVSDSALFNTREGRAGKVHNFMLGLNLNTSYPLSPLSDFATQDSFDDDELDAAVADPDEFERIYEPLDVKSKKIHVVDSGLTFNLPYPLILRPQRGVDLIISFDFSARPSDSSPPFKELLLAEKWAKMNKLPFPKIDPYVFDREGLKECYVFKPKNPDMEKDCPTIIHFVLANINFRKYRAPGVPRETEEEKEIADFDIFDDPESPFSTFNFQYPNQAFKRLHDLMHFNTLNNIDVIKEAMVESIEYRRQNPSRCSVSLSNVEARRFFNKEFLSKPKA
Description: The effectiveness of the inventive compounds is determinable by referring to the inhibition of the cytosolic phospholipase A2. For this purpose, cytosolic phospholipase A2 that had been isolated from human thrombocytes was used.
The IC50 value of the compounds for the inhibition of cytosolic phospholipase A2 corresponds to the concentration of the compounds that is necessary to reduce the activity of the enzyme by 50%.
The IC50 values were calculated from the values of cytosolic phospholipase A2 inhibition obtained from different concentrations with the help of the Probit model (see Hartke, Mutschler, DAB 9 Kommentar Band 1 S. 733-734, Wissenschaftliche Verlagsgesellschaft Stuttgart 1978).
The effectiveness of the inventive compounds was determined based on the inhibition of cytosolic phospholipase A2. The determination was accomplished, if not described otherwise hereinafter, as was described in Schmitt, M.; Lehr, M., “HPLC assay with UV spectrometric detection for the evaluation of inhibitors of cytosolic phospholipase A2” J. Pharm. Biomed. Anal. 2004, 35, 135-142.
Cytosolic phospholipase A2 that had been isolated from human thrombocytes was used as the enzyme source.
To produce a solution of covesicles from the substrate 1-stearoyl-2-arachidonoyl-sn-glycero-3-phosphocholine (SAPC) (Sigma) and 1,2-dioleoyl-sn-glycerol (DOG) (Sigma), corresponding amounts of the chloroform solution from SAPC (10 mg/ml) and DOG (5 mg/ml) were mixed and then the chloroform was steamed away in a stream of nitrogen. The residue was mixed with enough Tris buffer ([…], 1 mM dithiothreitol, 150 mM NaCl, 1 mM CaCl2, ph 8 at 20° C.) that a concentration for SAPC of 0.26 mM and a concentration for DOG of 0.13 mM were present. The mixture was homogenized for 10 minutes in an ultrasonic bath at 35° C. for the purpose of forming covesicles.
2 μl of the solution of the respective compound in DMSO (made from a 5 mM stock solution in DMSO) or, in the case of the control value, 2 μl of DMSO, were each mixed with 78 μl of the substrate mixture in Eppendorf tubes.
After 10 minutes of preincubation in a water bath at 37° C., 20 μl of the solution of cytosolic phospholipase A2 obtained from human thrombocytes were added to each of the […] and this mixture was incubated for another 60 minutes at 37° C. The incubation preparations contained 0.20 mM SAPC and 0.10 mM DOG per 100 μl. After that, the enzyme reaction was stopped by adding 400 μl of a solution of acetronitrile/methanol/0.1 M aqueous EDTA-solution in ratios 16:15:1 (v/v/v), whereby this solution contained 3 μg/ml nordihydroguaiaretic acid (NDGA) (Sigma) as antioxidant and 1.55 μg/ml 4-undecyloxybenzoic acid as internal standard. Subsequently, the samples were placed in ice for 10 to 15 minutes and then stored at −20° C. until solid phase extraction.
The octadecyl solid phase extraction columns with a bed volume of 200 mg and a capacity of 3 ml (Baker) were initially washed with 6 ml methanol and then with 6 ml water. The samples were diluted with 2 ml 0.005 M aqueous NaOH and then introduced to the solid phase columns. […] The eluate was mixed with 600 μl water. 100 μl of this solution was injected into the HPLC apparatus (Waters, Waters 717plus Autosampler, Waters 515 pump, and Waters 2487 UV detector). Data analysis was accomplished using the software program Millennium. For the column, a Nucleosil 100-3 C18 column (125×3 mm) with a Nucleosil 100-3 C18 pre-column (20×3 mm) (CS-Chromatographie-Service, Langerwehe) was used. The flow rate was 0.4 ml/min; the detection wavelength was 200 nm. A mixture of acetonitrile/water/phosphoric acid (85%) in ratios 770:230:1 (v/v/v) was used for the flow medium. The chromatogram run time was 30 minutes. Before the next injection, the column was always equilibrated for 15 minutes.

[2] = Determining water solubility in phosphate buffered saline (pH 7.4), HPLC; type: physicochemical; settings: phosphate buffered saline (PBS buffer), aqueous buffer, thermodynamic from solid; PBS buffer pH 7.4; range or bound stated jointly for the listed compounds
Description: The water solubility of the compounds was determined by administering aqueous phosphate buffer (pH 7.4) to each respective compound, and the dissolved amount was determined after shaking and centrifugation, as is described in example 12.
The determination of the water solubility of the compound was accomplished, if not hereinafter stated otherwise, with reference to the method published by Kim et al., J. Med. Chem. 2005, 48, 3621-3629.
The mixture was placed in an ultrasonic bath (Sonorex TK52, Bandelin) for 10 minutes and then shaken lightly in a shaking water bath (GFL 1083). Subsequently, the mixture was centrifuged for 10 minutes at 4000×g and room temperature. About 1 ml clear solution was taken from the supernatant. 200 μl of the clear solution were mixed with 250 μl acetonitrile (VWR) and 50 μl 0.1 M phosphoric acid. From this solution, a volume of between 5 μl and 100 μl was injected into an HPLC system (Waters, Waters 717plus Autos ampler, Waters 515 pump, and Waters 2487 UV detector)
For reference solution 1, 2 μl of a 5 mM solution of the respective compound in dimethyl sulfoxide (DMSO) were mixed with 198 μl PBS buffer, 250 μl acetonitrile, and 50 μl 0.1 M phosphoric acid. For reference solution 2, 2 μl of a 5 mM solution of the respective compound in DMSO were mixed with 398 μl PBS buffer, 500 μl acetonitrile, and 100 μl 0.1 M phosphoric acid.
C18 Aqua®-columns from the company Phenomenex (Aqua®, RP18, 75×4.6 mm, 3 μm) were used as the stationary phase.
were determined under corresponding conditions.

[3] = test system: contact dermatitis induced by benzalkonium chloride; assay: Anti-inflammatory properties in vivo, contact dermatitis induced by benzalkonium chloride (ear swelling); settings: topical, 10 μl of a 1% solution in acetone (0.1 mg/ear), BALB/c mice, measured 1 to 72 hours
Description: The determination of the anti-inflammatory properties in vivo in the model of contact dermatitis induced by benzalkonium chloride was accomplished, if not stated otherwise hereinafter, according to the method published by E. Hyun et al., British Journal of Pharmacology, 2004, 143, S. 618-625.
BALB/c mice (Harlan Winkelmann GmbH, Borchen) were used as laboratory animals. A contact dermatitis was induced by introducing 10 μl per ear of a 5% benzalkonium chloride solution (Sigma) in olive oil/acetone (1:5) to the dorsal side of both ears for each of 8 lab animals per experimental group. This led to a swelling of the ears.
After 1 hour, 3 hours, 5 hours, 7 hours, 24 hours, 48 hours, and 72 hours, the ear thicknesses were measured using a digital caliper (Roth, Karlsruhe).

Row | Compound | IC50 [1] [nM] | inhibition at 0.1 µM [1] [%] | solubility [2] [µg/mL] | increase in ear thickness compared to the negative control [3]
1 | COC(=O)CCC(=O)c1cn(CC(=O)COc2ccc(Oc3ccc(C(F)(F)F)cc3)cc2)c2ccc(C(=O)O)cc12 [formula (5), 3-(3-methoxycarbonylpropanoyl)-1-{2-oxo-3-[4-(4-trifluormethylphenoxy)phenoxy]propyl}indole-5-carboxylic acid] | 22 | 30 to 97 | 15 to 35 | 
2 | CCCCCCCCc1ccc(OCC(=O)Cn2cc(C(=O)OC)c3cc(C(=O)O)ccc32)cc1 [formula (11), reference compound] |  |  | < 1 | 
3 | CCCCCCCCc1ccc(OCC(=O)Cn2cc(C(=O)C(F)(F)F)c3cc(C(=O)O)ccc32)cc1 [formula (6), 1-[3-(4-octylphenoxy)-2-oxopropyl]-3-(2,2,2-trifluoracetyl)indole-5-carboxylic acid] |  | 30 to 97 |  | 
4 | O=C(O)CCC(=O)c1cn(CC(=O)COc2ccc(Oc3ccc(C(F)(F)F)cc3)cc2)c2ccc(C(=O)O)cc12 [formula (4), 3-(3-carboxypropanoyl)-1-{2-oxo-3-[4-(4-trifluormethylphenoxy)phenoxy]propyl}indole-5-carboxylic acid] | 190 | 30 to 97 | 190 to 410 | 
5 | CCCCCCCCc1ccc(OCC(=O)Cn2cc(C(C)=O)c3cc(C(=O)O)ccc32)cc1 [formula (10), reference compound] |  |  | < 1 | 
6 | CCCCCCCCc1ccc(OCC(=O)Cn2cc(C(=O)CCCCC(=O)O)c3cc(C(=O)O)ccc32)cc1 [formula (3), 3-(5-carboxypentanoyl)-1-[3-(4-octylphenoxy)-2-oxopropyl]indole-5-carboxylic acid] |  |  |  | significantly decreased increase in ear thickness
7 | CCCCCCCCc1ccc(OCC(=O)Cn2cc(C(=O)CCCC(=O)O)c3cc(C(=O)O)ccc32)cc1 [formula (2), 3-(4-carboxybutanoyl)-1-[3-(4-octylphenoxy)-2-oxopropyl]indole-5-carboxylic acid] |  | 30 to 97 |  | 
